Laboratory results from ChEMBL document CHEMBL1147725, “Identification and biological characterization of 6-aryl-7-isopropylquinazolinones as novel TRPV1 antagonists that are effective in models of chronic pain” (J Med Chem, 2006).
Calls of active or inactive are those of the source. The calls are words filed in the database; no cut-off is given here.

Columns and labels:
[1] = biological target: T1, Transient receptor potential cation channel subfamily V member 1 (Homo sapiens, UniProt Q8NER1); test: Inhibition of calcium influx evoked by capsaicin in human TRPV1 expressing cells by fluorescence assay; format: functional
T1 sequence (Q8NER1 whole entry): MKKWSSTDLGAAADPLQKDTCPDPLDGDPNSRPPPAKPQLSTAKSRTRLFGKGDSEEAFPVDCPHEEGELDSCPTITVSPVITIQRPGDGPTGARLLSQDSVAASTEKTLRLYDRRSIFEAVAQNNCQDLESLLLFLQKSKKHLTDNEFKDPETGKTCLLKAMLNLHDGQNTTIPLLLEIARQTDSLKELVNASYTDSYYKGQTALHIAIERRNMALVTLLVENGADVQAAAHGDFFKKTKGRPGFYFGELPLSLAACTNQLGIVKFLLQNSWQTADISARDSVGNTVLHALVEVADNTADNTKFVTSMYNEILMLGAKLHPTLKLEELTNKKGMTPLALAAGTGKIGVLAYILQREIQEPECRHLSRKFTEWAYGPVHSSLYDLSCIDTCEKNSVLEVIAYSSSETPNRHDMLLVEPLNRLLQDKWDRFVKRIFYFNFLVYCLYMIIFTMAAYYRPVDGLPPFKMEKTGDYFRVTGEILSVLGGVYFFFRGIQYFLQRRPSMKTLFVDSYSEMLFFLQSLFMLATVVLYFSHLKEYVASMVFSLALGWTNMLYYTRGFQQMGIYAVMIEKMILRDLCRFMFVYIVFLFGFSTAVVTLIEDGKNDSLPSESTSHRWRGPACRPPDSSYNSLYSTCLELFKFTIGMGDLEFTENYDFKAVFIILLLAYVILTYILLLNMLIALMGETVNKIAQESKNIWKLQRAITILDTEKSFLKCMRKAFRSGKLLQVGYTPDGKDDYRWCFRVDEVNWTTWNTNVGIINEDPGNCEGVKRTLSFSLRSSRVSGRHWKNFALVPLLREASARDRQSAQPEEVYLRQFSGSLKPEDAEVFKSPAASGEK

[2] = biological target: Transient receptor potential cation channel subfamily V member 1 (Rattus norvegicus) (UniProt O35433); test: (§1) Inhibition of calcium influx evoked by capsaicin in rat TRPV1 expressing cells by fluorescence assay; format: functional, cell-based
Sequence of Transient receptor potential cation channel subfamily V member 1 (Rattus norvegicus) (O35433 whole entry): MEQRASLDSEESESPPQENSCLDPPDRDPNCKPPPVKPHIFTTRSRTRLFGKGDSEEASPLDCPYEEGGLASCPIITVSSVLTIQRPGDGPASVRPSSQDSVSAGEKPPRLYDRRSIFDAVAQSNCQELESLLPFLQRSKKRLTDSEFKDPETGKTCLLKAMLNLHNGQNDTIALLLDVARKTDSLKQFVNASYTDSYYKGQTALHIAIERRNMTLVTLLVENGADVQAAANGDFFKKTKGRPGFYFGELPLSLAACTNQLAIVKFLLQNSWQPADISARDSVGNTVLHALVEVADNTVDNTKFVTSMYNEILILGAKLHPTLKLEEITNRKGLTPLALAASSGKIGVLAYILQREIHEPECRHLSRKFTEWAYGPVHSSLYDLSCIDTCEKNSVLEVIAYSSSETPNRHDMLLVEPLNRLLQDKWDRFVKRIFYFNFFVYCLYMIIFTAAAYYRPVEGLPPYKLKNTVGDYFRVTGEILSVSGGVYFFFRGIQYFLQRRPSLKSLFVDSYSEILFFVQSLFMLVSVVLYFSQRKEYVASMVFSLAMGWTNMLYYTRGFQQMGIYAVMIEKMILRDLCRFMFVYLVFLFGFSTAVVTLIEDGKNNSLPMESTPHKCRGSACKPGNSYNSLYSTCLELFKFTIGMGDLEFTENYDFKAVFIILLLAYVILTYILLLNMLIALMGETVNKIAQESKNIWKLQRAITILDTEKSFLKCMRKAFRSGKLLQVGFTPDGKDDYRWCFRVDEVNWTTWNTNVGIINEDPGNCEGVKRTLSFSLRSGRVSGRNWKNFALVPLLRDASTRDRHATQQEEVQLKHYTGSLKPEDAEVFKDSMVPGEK

[3] = biological target: T1, Transient receptor potential cation channel subfamily V member 1; test: Inhibition of low pH activation of human TRPV1; format: functional
[4] = biological target: T2, Transient receptor potential cation channel subfamily V member 1 (Rattus norvegicus, UniProt O35433); test: as §1; format: functional, cell-based
T2 sequence (O35433 whole entry): as above

[5] = biological target: T2, Transient receptor potential cation channel subfamily V member 1; test: Inhibition of low pH activation of rat TRPV1; format: functional

Row | Compound | IC50 [1] [nM] | also measured
1 | Cc1nc(O)c2cc(-c3ccc(Cl)c(OC(C)C)c3)c(C(C)C)cc2n1 | 201 | 
2 | CC(C)(C)c1nc2nc(S)nc(O)c2cc1-c1ccc(Cl)cc1 |  | Activity [2]: inactive; Activity [1]: inactive
3 | CCOc1cc(-c2cc3c(=O)[nH]c(C)nc3cc2C(C)C)ccc1OC | 286 | 
4 | CCOc1cc(-c2cc3c(=O)[nH]c(C)nc3cc2C(C)C)ccc1Cl | 12 | 
5 | Cc1nc(O)c2cc(-c3ccc(C)c(Cl)c3)c(C(C)C)cc2n1 | 42 | 
6 | Cc1nc(O)c2cc(-c3ccc(Cl)c(OCC4CCC4)c3)c(C(C)C)cc2n1 | 144 | 

More lines, main results first:

Row | IC50 [1] [nM] | Compound | also measured
7 | 133 | CC(C)c1cc2nc(N)[nH]c(=O)c2cc1-c1ccc(Cl)cc1 | 
8 | 487 | Cc1nc2cc(C(C)C)c(-c3ccc(Cl)c(OCCN(C)C)c3)cc2c(=O)[nH]1 | 
9 | 100 | COc1cc(Cl)cc(-c2cc3c(O)nc(C)nc3cc2C(C)C)c1 | 
10 | 37 | CCOc1cc(-c2cc3c(=O)[nH]c(C)nc3cc2C(C)C)c(Cl)cc1Cl | 
11 | 334 | Oc1cc2c(cc1O)CN(C(=S)NCCc1ccc(Cl)cc1)CCC2 [CAPSAZEPINE] | 
12 | 100 | CC(C)(C)c1nc2[nH]c(=S)[nH]c(=O)c2cc1-c1ccccc1 | IC50 [3]: 49 nM; IC50 [4]: 90 nM; IC50 [5]: 25 nM
